Among the test systems are UACC-257; HL-60; IGROV-1; EKVX; BT-549; SK-MEL-2; HCT-116; ACHN; SF-268; SK-MEL-28; SW-620; UO-31; MDA-MB-435; HT-29; SK-MEL-5; M14; RPMI-8226; Hs-578T; NCI-H226; HCC 2998.
What all share (experiment): NCI-60 cell line screen, 48 h

Each structure is given as a SMILES string.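 Method: 48-hour compound exposure of cells in 96-well plates, five concentrations, linear interpolation of endpoints. GI50: concentration for 50% inhibition of growth.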 Activity calls are given as the source filed them. Cut-off read from the data, not from the text of the source: active = GI50 up to about 1.1 µM and inactive = higher. Where a SMILES comes first, the peptide text is derived from it. [ ]: non-standard residue; d: D form. Phe(4-NO2) = N[CH](Cc1ccc([N+](=O)[O-])cc1)C(=O)O Where only a bound is given, the exact number is not on record here.

This note sets out measurements from ChEMBL document CHEMBL1201862, “PubChem BioAssay data set” (2004).

As to `Cc1ccc(NC(=S)N/N=C(/c2ccccc2)c2ccccn2)cc1`, the GI50 in the assay with UACC-257 is < 15.6 nM (active); in the assay with HL-60, < 12.1 nM (active); with IGROV-1, < 17.3 nM (active); in the assay with EKVX, 67.5 nM (active); in the assay on BT-549, 4250 nM (inactive); with SK-MEL-2 it was 4520 nM (inactive). The GI50 is < 10 nM (active) in the assay on HCT-116; < 37.1 nM (active) in the assay on ACHN; < 23.3 nM (active) in the assay with SF-268; 224 nM (active) in the assay with SK-MEL-28; < 18.3 nM (active) in the assay on SW-620; 177 nM (active) in the assay on UO-31. The GI50 in the assay on MDA-MB-435 is 400 nM (active); in the assay on HT-29 it was 54.1 nM (active); with SK-MEL-5, 93.3 nM (active); in the assay with M14, < 10 nM (active); in the assay with RPMI-8226 it was < 16.1 nM (active); with Hs-578T it was 13100 nM (inactive). In addition, the GI50 in the assay with NCI-H226 is 124 nM (active); in the assay with HCC 2998 it was 2220 nM (inactive).

With `O=C1C=CC(=O)c2ncccc21`, the GI50 with UACC-257 was 5050 nM (inactive); in the assay with HL-60 it was 310 nM (active); in the assay on IGROV-1, 5070 nM (inactive); in the assay with EKVX it was 3370 nM (inactive); in the assay with BT-549 it was 4450 nM (inactive); with SK-MEL-2 it was 13600 nM (inactive). In addition, the GI50 in the assay with HCT-116 is 1890 nM (inactive); in the assay with ACHN it was 2630 nM (inactive); with SF-268, 10900 nM (inactive); with SK-MEL-28 it was 3460 nM (inactive); with SW-620 it was 1930 nM (inactive); with UO-31, 4430 nM (inactive). For the same molecule, the GI50 in the assay on MDA-MB-435 is 5700 nM (inactive); in the assay on HT-29, 4570 nM (inactive); in the assay with SK-MEL-5, 6500 nM (inactive); with M14, 3680 nM (inactive); in the assay with RPMI-8226, 2550 nM (inactive); with Hs-578T it was 10200 nM (inactive). Besides, the GI50 in the assay on NCI-H226 is 12100 nM (inactive); with HCC 2998, 7260 nM (inactive).

Regarding `CC(NC(=O)C(Cc1ccc([N+](=O)[O-])cc1)NC(=O)C(N)CCCCN)C(=O)NC(Cc1ccc([N+](=O)[O-])cc1)C(N)=O` (stereo not given) (H-K[Phe(4-NO2)]A[Phe(4-NO2)]-NH2; configuration not given here), the GI50 is > 68200 nM (inactive) with UACC-257; 18700 nM (inactive) in the assay with HL-60; 26200 nM (inactive) in the assay on IGROV-1; > 71400 nM (inactive) in the assay on EKVX; 27600 nM (inactive) with BT-549; 51500 nM (inactive) in the assay with SK-MEL-2. The GI50 is > 45200 nM (inactive) in the assay on HCT-116; 32800 nM (inactive) with ACHN; > 50000 nM (inactive) in the assay with SF-268; 75700 nM (inactive) with SK-MEL-28; 27200 nM (inactive) with SW-620; 44400 nM (inactive) in the assay on UO-31. The GI50 in the assay with MDA-MB-435 was > 52600 nM (inactive); in the assay on HT-29 it was 20400 nM (inactive); in the assay on SK-MEL-5, 35800 nM (inactive); with M14, > 50500 nM (inactive); in the assay with RPMI-8226, 29200 nM (inactive); in the assay on Hs-578T, > 68700 nM (inactive). Further, the GI50 in the assay with NCI-H226 is 98900 nM (inactive); in the assay on HCC 2998, 28100 nM (inactive).

With `CO[C@H]1C[C@H](O[C@H]2CC[C@]3(C=O)[C@H]4CC[C@]5(C)[C@@H](C6=CC(=O)OC6)CC[C@]5(O)[C@@H]4CC[C@]3(O)C2)O[C@H](C)[C@H]1O` [CYMARIN], the GI50 was 370 nM (active) in the assay on UACC-257; 118 nM (active) with HL-60; 448 nM (active) with IGROV-1; 175 nM (active) in the assay with EKVX; 207 nM (active) with BT-549; 397 nM (active) in the assay on SK-MEL-2. In addition, the GI50 was 163 nM (active) in the assay on HCT-116; 91.2 nM (active) in the assay on ACHN; 126 nM (active) with SF-268; 845 nM (active) in the assay with SK-MEL-28; 243 nM (active) in the assay with SW-620; 308 nM (active) in the assay on UO-31. Further, the GI50 with MDA-MB-435 was 344 nM (active); in the assay with HT-29, 233 nM (active); with SK-MEL-5 it was 99.3 nM (active); with M14 it was 528 nM (active); in the assay with RPMI-8226 it was 270 nM (active); in the assay on Hs-578T, 525 nM (active). For the same molecule, the GI50 was 540 nM (active) in the assay with NCI-H226 and 2080 nM (inactive) with HCC 2998.
